{"source": "patent US7588899B2", "about": "“Fluorescent probes for use in protein kinase inhibitor binding assay” (Boehringer Ingelheim Pharmaceuticals, Inc., priority 2003, dated 2009)", "molecular_target": "STK12 kinase domain (Homo sapiens, UniProt Q96GD4)", "sequence (Q96GD4 77-327 limits assumed)": "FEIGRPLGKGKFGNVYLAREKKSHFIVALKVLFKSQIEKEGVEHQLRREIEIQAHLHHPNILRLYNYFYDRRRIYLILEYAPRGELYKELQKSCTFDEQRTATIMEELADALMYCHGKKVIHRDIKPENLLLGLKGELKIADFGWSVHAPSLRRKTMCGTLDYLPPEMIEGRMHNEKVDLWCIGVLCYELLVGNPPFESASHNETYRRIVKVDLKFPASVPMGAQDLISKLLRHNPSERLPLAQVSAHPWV", "experiment": "Fluorescence polarization titration of the fluorescent probe with STK12 kinase domain", "format": "binding", "settings": "25 nM probe, STK12 kinase domain serially diluted", "method": "Step one: Characterization of the Fluorescent Probe\nAn absorbance spectrum is first evaluated for each probe. The excitation and emission spectra are then measured in order to identify the appropriate excitation and emission wavelengths for detecting the probe. An example of such a probe is 6-(2,7-difluoro-6-hydroxy-3-oxo-3H-xanthen-9-yl)-N-[6-(5-nitro-2-phenylamino-pyrimidin-4-ylamino)-hexyl]-isophthalamic acid where the excitation and emission maxima are 496 nm and 524 nm, respectively. These fluorescence spectra were measured on an SLM-8100 fluorimeter with the probe dissolved in an assay buffer (50 mM HEPES, pH 7.4, 100 mM NaCl, 5 mM MgCl2 5 % Glycerol, 200 mM TCEP and 0.01% (w/v) CHAPS, 2 % DMSO).\nThe affinity of the probe for STK12 kinase domain was then determined in a titration experiment. The polarization assay is carried out in Corning® Costar® NBS 96-well solid black flat bottom plates. In this example, an LJL Analyst® assay detection system was used with filters appropriate for the excitation/emission characteristics of the fluorescent probe. STK12 kinase domain was serially diluted into wells containing 25 nM probe to cover a broad concentration range across the plate. In addition, several wells contain either probe alone or probe with the highest concentration of STK12 kinase domain. This is done in order to calculate the Qb/Qf ratio for the probe/kinase domain pair. […]"}
{"molecule": "O=C(NCCCCCCNc1nc(Nc2ccccc2)ncc1[N+](=O)[O-])c1ccc(-c2c3cc(F)c(=O)cc-3oc3cc(O)c(F)cc23)c(C(=O)O)c1", "note": "[Compound G, 6-(2,7-difluoro-6-hydroxy-3-oxo-3H-xanthen-9-yl)-N-[6-(5-nitro-2-phenylamino-pyrimidin-4-ylamino)-hexyl]-isophthalamic acid]", "values": [{"measurement": "binding of fluorescent probe to STK12 kinase domain", "value": "binds to the active site of STK12 kinase domain"}]}
